Test: stability in solution of the free hydroxamic acid (observed during purification)
Type: physicochemical
Conditions: degradation during lengthy column elution and solvent evaporation on pilot scale
Source text: The purity of hydroxycarbamoylpiperazine of formula VIII obtained after part (i) ranged from 84% to 92%. The observed yields were between 63% and 78%. This hydroxycarbamoylpiperazine was of insufficient purity to produce pure magnesium salt/complex of formula VI suitable for pharmaceutical use. The direct conversion of hydroxycarbamoylpiperazine of formula VIII to the magnesium salt/complex of formula VI by omitting parts (ii) and (iii) yielded the magnesium salt/complex with the purity ranging from 96% to 97%. We discovered that this problem could be solved by first obtaining and separating a benzhydrylpiperazine complex of formula IX prior to the conversion to the magnesium salt/complex of […]. Yields for the process that included parts (i)-(iv) ranged from 81% to 86%. The purity of the magnesium salt/complex of […] was at least 99%; specifically, between 99.4% and 99.7%.

- stability in solution: poor stability in solution
Compound: COCCOC(=O)N1CCN(S(=O)(=O)c2cc(F)c(Oc3ccc(Cl)cc3)c(F)c2)[C@@H](C(=O)NO)C1 [formula VIII, 4-(4-(4-chlorophenoxy)-3,5-difluorophenylsulfonyl)-3-(hydroxycarbamoyl)piperazine-1-carboxylic acid, (R)-2-methoxyethyl ester]
